Where “and” joins values, the source holds several entries; their conditions need not be identical. Equal entries are not always repeated. Inconclusive results and toxic doses are left out.
Tested on: CD2F1 mice, L1210 leukemia ip, survival T/C
Assay: NCI In Vivo Anticancer Drug Screen. Data for tumor model L1210 Leukemia (intraperitoneal) in CD2F1 (CDF1) mice
Conditions: endpoint: mean survival time, higher = longer survival
Procedure, shortened: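 Transplantable tumor in mice; compound-treated vs vehicle-treated groups. Read-out = treated/control ratio of the measured endpoint.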

[1] = dose: 100.0 mg/kg/injection, schedule: Q01DX009 (ip), vehicle: saline with Tween-80
[2] = dose: 100.0 mg/kg/injection, schedule: Q04DX003 (ip), vehicle: saline with Tween-80
[3] = dose: 200.0 mg/kg/injection, schedule: Q01DX009 (ip), vehicle: saline with Tween-80
[4] = dose: 200.0 mg/kg/injection, schedule: Q04DX003 (ip), vehicle: saline with Tween-80
[5] = dose: 400.0 mg/kg/injection, schedule: Q01DX009 (ip), vehicle: saline with Tween-80
[6] = dose: 400.0 mg/kg/injection, schedule: Q04DX003 (ip), vehicle: saline with Tween-80
[7] = dose: 100.0 mg/kg/injection, schedule: Q04DX002 (ip), vehicle: saline
[8] = dose: 200.0 mg/kg/injection, schedule: Q04DX002 (ip), vehicle: saline
[9] = dose: 50.0 mg/kg/injection, schedule: Q01DX009 (ip), vehicle: other
[10] = dose: 100.0 mg/kg/injection, schedule: Q01DX009 (ip), vehicle: other
[11] = dose: 200.0 mg/kg/injection, schedule: Q01DX009 (ip), vehicle: other
[12] = dose: 50.0 mg/kg/injection, schedule: Q01DX009 (ip), vehicle: saline with Tween-80
[13] = dose: 100.0 mg/kg/injection, schedule: Q01DX001 (ip), vehicle: saline with Tween-80
[14] = dose: 200.0 mg/kg/injection, schedule: Q01DX001 (ip), vehicle: saline with Tween-80
[15] = dose: 100.0 mg/kg/injection, schedule: Q04DX002 (ip), vehicle: saline with Tween-80
[16] = dose: 200.0 mg/kg/injection, schedule: Q04DX002 (ip), vehicle: saline with Tween-80
[17] = dose: 400.0 mg/kg/injection, schedule: Q04DX002 (ip), vehicle: saline with Tween-80

With `CCOC(=O)c1cnc(SCc2ccccc2)nc1N` the T/C [1] was 92 % of control, the T/C [2] was 100 % of control and the T/C [3] was 94 % of control. For the same compound, the T/C [4] was 100 % of control, the T/C [5] was 96 % of control and the T/C [6] was 97 % of control.

`CC(NC(=O)c1ccc(Cl)cc1Cl)c1ccccc1` (stereo not given) was tested, and the T/C (dose: 75.0 mg/kg/injection, schedule: Q04DX003 (ip), vehicle: saline with Tween-80) was 101 % of control, the T/C (dose: 150.0 mg/kg/injection, schedule: Q04DX003 (ip), vehicle: saline with Tween-80) was 101 % of control and the T/C (dose: 300.0 mg/kg/injection, schedule: Q04DX003 (ip), vehicle: saline with Tween-80) was 101 % of control.

`CC(=O)OCCN1CC1` was tested, and the T/C (dose: 25.0 mg/kg/injection, schedule: Q01DX009 (ip), vehicle: saline) was 90 % of control.

`CN(C)CC(C)(C)C(=O)c1ccc(Cl)cc1` was tested, and the T/C [7] was 93 % of control and the T/C [8] was 89 % of control.

With `CC(=O)OC1=C(C)C(c2ccc(C)cc2)OC1=O` (stereo not given) the T/C (dose: 12.5 mg/kg/injection, schedule: Q01DX009 (ip), vehicle: other) was 101 % of control, the T/C (dose: 25.0 mg/kg/injection, schedule: Q01DX009 (ip), vehicle: other) was 106 % of control and the T/C [9] was 110 % of control. The T/C [10] was 104 % of control and the T/C [11] was 104 % of control.

In the case of `CCC(C(=O)O)C(=O)O.[NH-]CC[NH-].[Pt+2]`, the T/C (dose: 25.0 mg/kg/injection, schedule: Q04DX003 (ip), vehicle: saline with Tween-80) is reported as 101 % of control, the T/C (dose: 50.0 mg/kg/injection, schedule: Q04DX003 (ip), vehicle: saline with Tween-80) is reported as 104 % of control and the T/C [2] is reported as 112 % of control.

In the case of `COc1cc(OC)c(NC(=O)Oc2ccc(NC(C)=O)cc2)cc1Cl`, the T/C [12] is reported as 88 % of control and the T/C [1] is reported as 96 % of control.

`Nc1nc(Br)nc2c1ncn2C1OC(CO)C(O)C1O` (stereo not given) was tested, and the T/C (dose: 75.0 mg/kg/injection, schedule: Q01DX001 (ip), vehicle: saline) was 109 % of control.

In the case of `CCOC(=O)/C=C\C1CCCCC1`, the T/C [12] is reported as 93 % of control, the T/C [1] is reported as 108 % of control and the T/C [3] is reported as 104 % of control.

In the case of `N#CC(C#N)=C1CCNc2ccccc21`, the T/C [1] is reported as 96 % of control, the T/C [2] is reported as 101 % of control and the T/C [3] is reported as 94 % of control. The T/C [4] was 103 % of control, the T/C [5] was 90 % of control and the T/C [6] was 97 % of control.

In the case of `N#C/C(=C/c1ccccc1Cl)C(N)=O`, the T/C (dose: 100.0 mg/kg/injection, schedule: Q01DX001 (ip), vehicle: saline sonified) is reported as 103 % of control, the T/C (dose: 200.0 mg/kg/injection, schedule: Q01DX001 (ip), vehicle: saline sonified) is reported as 100 % of control and the T/C (dose: 400.0 mg/kg/injection, schedule: Q01DX001 (ip), vehicle: saline sonified) is reported as 104 % of control.

`CCOC(=O)c1ccc(N(CC)CC)cc1` was tested, and the T/C [1] was 95 % of control, the T/C [2] was 104 % of control and the T/C [3] was 92 % of control. For the same compound, the T/C [4] was 98 % of control, the T/C [5] was 95 % of control and the T/C [6] was 94 % of control.

For `O=C1C2CCCCC2C(=O)N1c1cccc2cccnc12` (stereo not given), the T/C (dose: 50.0 mg/kg/injection, schedule: Q01DX001 (ip), vehicle: saline with Tween-80) was 98 % of control, the T/C [13] was 95 % of control and the T/C [14] was 95 % of control.

`CCOC(=O)C1C2OC(=O)C(C(=O)C2CN(CCCl)CCCl)C1C1CC=C(CC2=CCC(C3C4C(=O)OC(C(CN(CCCl)CCCl)C4=O)C3C(=O)OCC)CC2)CC1` (stereo not given) was tested, and the T/C (dose: 6.25 mg/kg/injection, schedule: Q01DX009 (ip), vehicle: Klucel (hydroxypropylcellulose) (HPC)) was 121 % of control, the T/C (dose: 12.5 mg/kg/injection, schedule: Q01DX009 (ip), vehicle: Klucel (hydroxypropylcellulose) (HPC)) was 121 % of control and the T/C (dose: 50.0 mg/kg/injection, schedule: Q01DX009 (ip), vehicle: Klucel (hydroxypropylcellulose) (HPC)) was 154 % of control and 162 % of control. The T/C (dose: 100.0 mg/kg/injection, schedule: Q01DX009 (ip), vehicle: Klucel (hydroxypropylcellulose) (HPC)) was 154 % of control and 232 % of control, the T/C (dose: 200.0 mg/kg/injection, schedule: Q01DX009 (ip), vehicle: Klucel (hydroxypropylcellulose) (HPC)) was 111 % of control and the T/C (dose: 400.0 mg/kg/injection, schedule: Q01DX009 (ip), vehicle: Klucel (hydroxypropylcellulose) (HPC)) was 88 % of control.

With `COc1ccc([N+](=O)[O-])cc1NC(=O)Nc1cccc(Cl)c1` the T/C [15] was 91 % of control, the T/C [16] was 97 % of control and the T/C [17] was 91 % of control.

For `COCC(O)CN1CCN(c2cccc3c2CCCC3)CC1` (stereo not given), the T/C [13] was 97 % of control and the T/C [14] was 100 % of control.

In the case of `CCOC(=O)C(=O)C(C#N)c1ccccc1` (stereo not given), the T/C (dose: 25.0 mg/kg/injection, schedule: Q01DX001 (ip), vehicle: Klucel (hydroxypropylcellulose) (HPC)) is reported as 92 % of control, the T/C (dose: 50.0 mg/kg/injection, schedule: Q01DX001 (ip), vehicle: Klucel (hydroxypropylcellulose) (HPC)) is reported as 100 % of control and the T/C (dose: 100.0 mg/kg/injection, schedule: Q01DX001 (ip), vehicle: Klucel (hydroxypropylcellulose) (HPC)) is reported as 100 % of control and 106 % of control.

For `Cc1ccc(NC(=O)N(CCCl)N=O)cc1`, the T/C (dose: 9.0 mg/kg/injection, schedule: Q01DX015 (ip), vehicle: saline) was 189 % of control, the T/C (dose: 15.0 mg/kg/injection, schedule: Q01DX015 (ip), vehicle: saline) was 193 % of control and the T/C (dose: 25.0 mg/kg/injection, schedule: Q01DX015 (ip), vehicle: saline) was 87 % of control.

In the case of `Nc1ccc(N=Nc2cccnc2)cc1`, the T/C (dose: 100.0 mg/kg/injection, schedule: Q04DX002 (ip), vehicle: other) is reported as 103 % of control and the T/C (dose: 200.0 mg/kg/injection, schedule: Q04DX002 (ip), vehicle: other) is reported as 88 % of control.

For `COc1cc2c(cc1O)CCCCC2`, the T/C [9] was 100 % of control, the T/C [10] was 103 % of control and the T/C [11] was 92 % of control.

`O=C(c1ccccc1)N(N=C(c1ccc([N+](=O)[O-])cc1)c1ccc([N+](=O)[O-])cc1)c1ccccc1` was tested, and the T/C [2] was 93 % of control and the T/C [6] was 87 % of control.

In the case of `CC(C)NC(=S)NC1=CCNN1c1ccccc1`, the T/C [15] is reported as 100 % of control, the T/C [16] is reported as 88 % of control and the T/C [17] is reported as 88 % of control.

`O=CNc1ccc(C(=O)O)c(O)c1` was tested, and the T/C (dose: 100.0 mg/kg/injection, schedule: Q01DX001 (ip), vehicle: saline) was 95 % of control, the T/C (dose: 100.0 mg/kg/injection, schedule: Q01DX009 (ip), vehicle: saline) was 94 % of control and 95 % of control and the T/C [7] was 97 % of control. The T/C [2] was 100 % of control, the T/C (dose: 200.0 mg/kg/injection, schedule: Q01DX001 (ip), vehicle: saline) was 100 % of control and 106 % of control and the T/C (dose: 200.0 mg/kg/injection, schedule: Q01DX009 (ip), vehicle: saline) was 96 % of control and 98 % of control. The T/C [8] was 86 % of control and 94 % of control, the T/C [4] was 98 % of control and the T/C (dose: 400.0 mg/kg/injection, schedule: Q01DX001 (ip), vehicle: saline) was 88 % of control and 92 % of control. The T/C (dose: 400.0 mg/kg/injection, schedule: Q01DX009 (ip), vehicle: saline) was 100 % of control, the T/C (dose: 400.0 mg/kg/injection, schedule: Q04DX002 (ip), vehicle: saline) was 92 % of control and 108 % of control and the T/C [6] was 98 % of control.

In the case of `COC(=O)C(C)(C)Br`, the T/C [2] is reported as 97 % of control, the T/C [4] is reported as 102 % of control and the T/C [6] is reported as 102 % of control.

With `NC(=S)NC(=S)Nc1ccc(Cl)cc1` the T/C (dose: 25.0 mg/kg/injection, schedule: Q04DX002 (ip), vehicle: saline with Tween-80) was 98 % of control, the T/C (dose: 50.0 mg/kg/injection, schedule: Q04DX002 (ip), vehicle: saline with Tween-80) was 98 % of control and the T/C [15] was 98 % of control.

For `CC/C(=C(/CC)c1ccc(OP(N)(=O)N(CCCl)CCCl)cc1)c1ccc(OP(N)(=O)N(CCCl)CCCl)cc1` (stereo not given), the T/C (dose: 90.0 mg/kg/injection, schedule: Q01DX001 (ip), vehicle: DMSO) was 100 % of control, the T/C (dose: 133.0 mg/kg/injection, schedule: Q01DX001 (ip), vehicle: DMSO) was 98 % of control and the T/C (dose: 200.0 mg/kg/injection, schedule: Q01DX001 (ip), vehicle: DMSO) was 102 % of control. The T/C (dose: 300.0 mg/kg/injection, schedule: Q01DX001 (ip), vehicle: DMSO) was 113 % of control.

`CC(C)=CC(=O)CC(O)(C(F)(F)F)C(F)(F)Cl` (stereo not given) was tested, and the T/C (dose: 100.0 mg/kg/injection, schedule: Q04DX003 (ip), vehicle: Klucel (hydroxypropylcellulose) (HPC)) was 98 % of control and the T/C (dose: 200.0 mg/kg/injection, schedule: Q04DX003 (ip), vehicle: Klucel (hydroxypropylcellulose) (HPC)) was 93 % of control.

— PubChem BioAssay AID256 (DTP/NCI, 2004)
